# Read-outs that look alike come from different tables or passages of the source.
# Experiments:
# off-target kinases [1] = target: T1, off-target kinases (Homo sapiens, UniProt P52333); test: SelectScreen Kinase Profiling, single point inhibition and IC50 for off-target kinases; format: biochemical; conditions: JAK3, ATP Km app, ZLYTE
# T1 sequence (P52333 1-1124): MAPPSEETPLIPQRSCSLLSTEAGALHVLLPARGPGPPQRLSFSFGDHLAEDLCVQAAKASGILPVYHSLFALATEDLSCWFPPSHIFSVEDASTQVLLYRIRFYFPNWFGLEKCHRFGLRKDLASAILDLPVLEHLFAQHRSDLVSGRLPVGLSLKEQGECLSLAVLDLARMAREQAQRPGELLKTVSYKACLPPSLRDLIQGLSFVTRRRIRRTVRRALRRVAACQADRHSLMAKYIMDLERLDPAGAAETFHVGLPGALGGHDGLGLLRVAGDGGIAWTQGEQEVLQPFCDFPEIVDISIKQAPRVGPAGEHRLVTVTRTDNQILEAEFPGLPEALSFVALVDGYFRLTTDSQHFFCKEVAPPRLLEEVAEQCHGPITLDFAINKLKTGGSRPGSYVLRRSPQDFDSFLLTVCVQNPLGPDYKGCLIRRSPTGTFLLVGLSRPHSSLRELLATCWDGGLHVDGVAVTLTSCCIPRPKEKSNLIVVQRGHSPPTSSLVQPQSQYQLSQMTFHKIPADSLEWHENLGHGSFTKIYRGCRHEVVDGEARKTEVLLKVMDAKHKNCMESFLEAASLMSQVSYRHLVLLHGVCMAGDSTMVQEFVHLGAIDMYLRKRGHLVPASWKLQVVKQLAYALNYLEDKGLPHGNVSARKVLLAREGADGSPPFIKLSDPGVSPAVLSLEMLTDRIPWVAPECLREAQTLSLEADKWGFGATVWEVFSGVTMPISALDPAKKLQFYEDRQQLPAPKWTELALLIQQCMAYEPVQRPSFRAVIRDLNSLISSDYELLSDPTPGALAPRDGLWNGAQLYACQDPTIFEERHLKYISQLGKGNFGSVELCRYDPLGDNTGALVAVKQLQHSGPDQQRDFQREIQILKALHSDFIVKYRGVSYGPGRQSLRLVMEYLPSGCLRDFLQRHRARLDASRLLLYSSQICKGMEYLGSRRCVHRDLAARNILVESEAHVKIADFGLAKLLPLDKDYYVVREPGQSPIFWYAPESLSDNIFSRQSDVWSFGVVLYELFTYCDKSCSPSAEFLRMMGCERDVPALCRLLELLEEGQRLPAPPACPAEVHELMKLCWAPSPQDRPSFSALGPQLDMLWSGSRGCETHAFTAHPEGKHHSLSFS
# off-target kinases [2] = target: T2, off-target kinases (Homo sapiens, UniProt Q32MK0); test: as above; format: biochemical; conditions: MLCK (MLCK2), LanthaScreen Binding
# T2 sequence (Q32MK0 1-819): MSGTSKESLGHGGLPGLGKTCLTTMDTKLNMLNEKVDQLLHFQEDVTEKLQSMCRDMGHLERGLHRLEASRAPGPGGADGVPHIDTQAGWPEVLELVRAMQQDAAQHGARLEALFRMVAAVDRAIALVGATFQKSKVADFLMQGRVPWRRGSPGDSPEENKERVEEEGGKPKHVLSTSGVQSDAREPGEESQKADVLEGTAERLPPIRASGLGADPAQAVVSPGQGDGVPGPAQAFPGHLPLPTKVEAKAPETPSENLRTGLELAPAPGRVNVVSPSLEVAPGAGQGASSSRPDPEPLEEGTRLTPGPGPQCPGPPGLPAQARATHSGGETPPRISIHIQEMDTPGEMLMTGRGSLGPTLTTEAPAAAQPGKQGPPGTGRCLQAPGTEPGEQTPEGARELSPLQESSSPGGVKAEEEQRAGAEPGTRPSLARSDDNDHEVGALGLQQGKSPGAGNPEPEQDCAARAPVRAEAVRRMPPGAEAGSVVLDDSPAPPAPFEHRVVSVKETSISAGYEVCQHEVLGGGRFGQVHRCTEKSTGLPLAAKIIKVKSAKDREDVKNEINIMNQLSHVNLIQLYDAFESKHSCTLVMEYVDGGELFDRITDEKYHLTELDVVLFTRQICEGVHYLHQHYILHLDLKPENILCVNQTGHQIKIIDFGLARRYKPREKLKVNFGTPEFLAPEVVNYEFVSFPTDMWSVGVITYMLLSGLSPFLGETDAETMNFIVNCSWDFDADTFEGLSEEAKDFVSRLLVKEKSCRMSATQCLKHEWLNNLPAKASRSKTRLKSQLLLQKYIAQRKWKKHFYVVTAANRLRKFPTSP
smiles,measurement,setting,value
"N#Cc1cc(-c2ncnc(Nc3ccc(N4CCN(C5COC5)CC4)cc3)n2)ccc1OC1CCOCC1 [Compound 1, 5-(4-((4-(4-(oxetan-3-yl)piperazin-1-yl)phenyl)amino)-1,3,5-triazin-2-yl)-2-((tetrahydro-2H-pyran-4-yl)oxy)benzonitrile]",inhibition,off-target kinases [1]; read-out: % Inhibition 1,73%
same,inhibition,off-target kinases [1]; read-out: % Inhibition 2,73%
same,inhibition,off-target kinases [1]; read-out: % Inhibition Avg,73%
same,inhibition,off-target kinases [2]; read-out: % Inhibition 1,92%
same,inhibition,off-target kinases [2]; read-out: % Inhibition 2,93%
same,inhibition,off-target kinases [2]; read-out: % Inhibition Avg,93%

# — patent publication US11572590B2, “Methods for evaluating tumor cell spheroids using 3D microfluidic cell culture device” (Dana-Farber Cancer Institute, Inc., priority 2017, dated 2023)
